From PMC12118597 (Science Advances, 2025)
Read-outs that look alike come from different tables or passages of the source.

Biological target: SARS-CoV-2 NSP3 macrodomain (Mac1) (Severe acute respiratory syndrome coronavirus 2, UniProt P0DTD1)
Assay type: binding
Settings: for 1-BDC: PanDDA background density correction factor; for Total number of conformations: ligand conformations modeled in the crystal structure; for 2*(1-BDC) (%): occupancy estimate from PanDDA; for Refined ligand occupancy (%): refined crystallographic occupancy
[1] = TRUE = crystal structure with ligand obtained
[2] = crystal soak 10 mM, P43 crystal form
[3] = site of ligand in X-ray crystal structure
[4] = ligand-bound crystal structure obtained (TRUE)
[5] = site occupied in X-ray crystal structure
[6] = crystal soak 10 mM, TFA/DMSO background map

SMILES	Occupancy difference (refined_occupancy - 2*(1-BDC))	1-BDC	X-ray crystal structure [1]	PanDDA run, overall: Hit [2]	PanDDA run, overall: Modeled [2]	PanDDA run, DMSO background map: 1-BDC (crystal soak 10 mM)	PanDDA run, DMSO background map: Hit (crystal soak 10 mM)	Total number of conformations	2*(1-BDC) (%)	Refined ligand occupancy (%)	Binding site [3]	PanDDA run, overall: Modeling comment [2]	X-ray crystal structure [4]	Binding site [5]	PanDDA run, TFA/DMSO background map: 1-BDC [6]	PanDDA run, TFA/DMSO background map: Hit [6]	PanDDA run, overall: Modeling comment (crystal soak 10 mM)
Cc1ccccc1CC(CO)Nc1ncnc2[nH]ccc12 (stereo not shown) [AVI-3674]	0	0.19	TRUE	TRUE	TRUE	0.19	TRUE	1	38	38	Adenosine	–	–	–	–	–	–
O=C(O)C(F)(F)F.OCC(CC1CCOCC1)Nc1ncnc2[nH]ccc12 (stereo not shown) [AVI-3676]	–	–	–	–	–	–	–	–	–	–	–	TFA only	–	–	–	–	–
OCC(Nc1ncnc2[nH]ccc12)C1CCOC1 (stereo not shown) [AVI-3679]	0	0.16	TRUE	TRUE	TRUE	0.16	TRUE	1	32	32	Adenosine	–	–	–	–	–	–
O=C(O)C(F)(F)F.OCC12CC(CN1c1ncnc3[nH]ccc13)C2 [AVI-3681]	-14	0.22	–	TRUE	TRUE	0.22	TRUE	1	44	30	–	Distal site, weak density, not modeled	TRUE	Adenosine	–	–	–
Cc1ccc(CC(CO)Nc2ncnc3[nH]ccc23)cc1 (stereo not shown) [AVI-3683]	20	0.15	TRUE	TRUE	TRUE	0.15	TRUE	2	30	50	Adenosine	–	–	–	–	–	–
Cc1ccc(CC(CO)Nc2ncnc3[nH]ccc23)cc1C (stereo not shown) [AVI-3684]	20	0.15	TRUE	TRUE	TRUE	0.15	TRUE	2	30	50	Adenosine	–	–	–	–	–	–
OCC1CCCN1c1ncnc2[nH]ccc12 (stereo not shown) [AVI-3685]	20	0.25	–	TRUE	TRUE	0.25	TRUE	1	50	70	–	–	TRUE	Adenosine	–	–	–
OCC(Cc1ccc(I)cc1)Nc1ncnc2[nH]ccc12 (stereo not shown) [AVI-3686]	0	0.2	TRUE	TRUE	TRUE	0.2	TRUE	2	40	40	Adenosine	–	–	–	–	–	–
O=C(O)C(F)(F)F.OCC(Nc1ncnc2[nH]ccc12)C(O)C1CCCCC1 (stereo not shown) [AVI-3687]	–	–	–	TRUE	–	0.15	TRUE	–	–	–	–	Weak density, not modeled	–	–	0.08	TRUE	–
O=C(O)C(F)(F)F.OCC1(Nc2ncnc3[nH]ccc23)CC1 [AVI-3688]	20	0.2	TRUE	TRUE	TRUE	0.2	TRUE	1	40	60	Adenosine	–	–	–	–	–	–
OCC(CC1CCCCC1)Nc1ncnc2[nH]ccc12 (stereo not shown) [AVI-3690]	0	0.12	TRUE	TRUE	TRUE	0.12	TRUE	1	24	24	Adenosine	Weak density for alternative ligand conformation	–	–	–	–	–
OCC(CC1CCCC1)Nc1ncnc2[nH]ccc12 (stereo not shown) [AVI-3691]	-16	0.18	TRUE	TRUE	TRUE	0.18	TRUE	1	36	20	Adenosine	–	–	–	–	–	–
OCC(Nc1ncnc2[nH]ccc12)C1CCc2ccccc21 (stereo not shown) [AVI-3693]	16	0.22	TRUE	TRUE	TRUE	0.22	TRUE	2	44	60	Adenosine	–	–	–	–	–	–
OCC(Cc1ccccn1)Nc1ncnc2[nH]ccc12 (stereo not shown) [AVI-3696]	14	0.13	TRUE	TRUE	TRUE	0.13	TRUE	2	26	40	Adenosine	–	–	–	–	–	–
OCC(O)C1CCCN1c1ncnc2[nH]ccc12 (stereo not shown) [AVI-3701]	0	0.18	–	TRUE	–	0.18	TRUE	1	36	36	–	–	TRUE	Adenosine	–	–	–
O=C(O)C(F)(F)F.OC[C@H]1CC2(CN1c1ncnc3[nH]ccc13)OCCO2 [AVI-3702]	0	0.21	–	TRUE	–	0.21	TRUE	1	42	42	–	–	TRUE	Adenosine	–	–	–
OCC(Cc1cncs1)Nc1ncnc2[nH]ccc12 (stereo not shown) [AVI-3703]	0	0.15	TRUE	TRUE	–	0.15	TRUE	1	30	30	Adenosine	–	–	–	–	–	–
OCC(Cc1ccoc1)Nc1ncnc2[nH]ccc12 (stereo not shown) [AVI-3705]	0	0.21	TRUE	TRUE	–	0.21	TRUE	1	42	42	Adenosine	–	–	–	–	–	–
O=C(O)C(F)(F)F.OCC(Cc1cccc(F)c1)Nc1ncnc2[nH]ccc12 (stereo not shown) [AVI-3706]	–	–	–	–	–	–	–	–	–	–	–	–	–	–	–	–	TFA only
OCC1CC2(CCOCC2)CN1c1ncnc2[nH]ccc12 (stereo not shown) [AVI-3707]	0	0.21	–	TRUE	–	0.21	TRUE	1	42	42	–	–	TRUE	Adenosine	–	–	Distal site, weak density, not modeled
OCC(COCc1ccccc1)Nc1ncnc2[nH]ccc12 (stereo not shown) [AVI-3709]	0	0.19	TRUE	TRUE	–	0.19	TRUE	2	38	38	Adenosine	–	–	–	–	–	–
O=C(O)C(F)(F)F.OC[C@@H]1CC2(CC2)CN1c1ncnc2[nH]ccc12 [AVI-3710]	0	0.26	–	TRUE	–	0.26	TRUE	2	52	52	–	–	TRUE	Adenosine	–	–	Weak density for open state of Phe132 loop
